Test results from patent publication US4752606A, “Pharmaceutical compositions and preparations thereof” (501 Noristan Limited, priority 1982, dated 1988).
Counter-ions that a name gives are not always drawn.

Key:
[1] = Effect on gastric damage caused by aspirin; format: in vivo, rats; conditions: aspirin approximately 550 mg/kg
Procedure: (§1) Gastric damage caused by irritant substances (e.g. aspirin, indomethacin or other acidic analgesic/anti-inflammatory drugs) is assessed by applying a suitable dose of the protective compound followed later by a relatively high dose of the irritant (in the case of aspirin, approximately 550 mg/kg). After a further 5 hours, the extent of gastric damage is determined.

[2] = Acute toxicity of aspirin with and without oleanolic acid; format: in vivo; conditions: mouse, in vivo, po, mice, mixture 1:1 mass ratio
mice [3] = assay: as above; format: in vivo; conditions: oral, males, mixture 1:1 mass ratio
[4] = Anti-inflammatory effect: carrageenan induced rat paw oedema; format: in vivo
Procedure: The compounds (aspirin and oleanolic acid) were administered orally.

[5] = Analgesic effect of aspirin in the presence of oleanolic acid; format: in vivo, rats; conditions: Rattus norvegicus, read-out: ED50 (analgesic effect)
Procedure: (§2) The analgesic effect of the compound was tested in oral application to rats. 45 Minutes after application of the compound, the rats received an intraperitoneal injection of 1.0 ml 1% acetic acid. This causes a series of characteristic spasms in the untreated control animals. Analgesic effects are indicated by the reduction of the frequency of these spasms. The following results were obtained with the compound:
Measurement of the analgesic effect of the test compounds was done as set out in Test 1. The ED50 was computed for the various treatments as follows: […]

[6] = Antithrombotic effect: pulmonary thrombo-embolism in animals treated with arachnidoic acid; format: in vivo; conditions: for effect on occurrence of pulmonary thrombo-embolism: animals treated with arachnidoic acid
Text: Oleanolic acid has no effect in this regard.

[7] = Gastric damage (HCl - Gastrin ulcer) caused by tetragastrin; format: in vivo, rats; conditions: 100 mg/kg/treatment per os twice daily, days 1-14; tetragastrin 100 μg/kg/day i.p.; day 15; vs untreated control
Procedure: Each animal was treated with hydrochloric acid (0,2 ml of a 20% solution; per os) on day zero. From day one onwards to day 14 the animals were treated once daily with tetragastrin (100 μg/kg/day; intraperitoneal injection) and twice daily with the protective compound (100 mg/kg/treatment; per os in tragacanth). On day 15 the extent of gastric damage was determined.

[8] = Analgesic activity (acetic acid induced spasms); format: in vivo; conditions: rats; for Average No. of spasms (25 mins): untreated control 43.75
Procedure: as §2, with “compound: […]” for “compound:”

[9] = Activity against stress induced ulcers; format: in vivo; conditions: 100 mg/kg, rats, 24 h plaster bandage; drug 1 h before and 6 h after
Procedure: The effect of compounds on this formation of stress ulcers is assessed by applying the drugs 1 hour before encasing the animals in the bandage and again 6 hours after encasing the animals. After 24 hours, the bandage is removed and gastric damage is assessed compared to that of untreated animals.

[10] = Effect on gastric damage caused by indomethacin; format: in vivo, rats
Procedure: as §1

mice [11] = assay: Acute toxicity of oleanolic acid; format: in vivo; conditions: oral route
[12] = Gastric damage caused by reserpine; format: in vivo, rats; conditions: 100 mg/kg per os; reserpine 6 mg/kg s.c.; after 16 hours; vs untreated control
Procedure: The animals were treated with oleanolic acid (per os; tragacanth vehicle) and directly thereafter with reserpine (6 mg/kg; subcutaneous injection). After 16 hours the extent of gastic damage was determined.

[13] = Healing effect on thermally induced ulceration; format: in vivo, rats; conditions: 100 mg/kg per os twice daily, days 1-13; day 14; vs untreated control
Procedure: Thermal stomach ulceration was induced on day zero by means of a heated (75° C.) stainless steel stamp (5 mm in diameter). From day one onwards to day 13 the animals were treated twice daily with oleanolic acid (100 mg/kg; per os in tragacanth). On day 14 the animals were examined for the extent of gastric damage.

[14] = Healing effect on chemically induced ulceration (acetic acid); format: in vivo, rats; conditions: 100 mg/kg per os twice daily, days 1-10; day 11; vs untreated control
Procedure: Ulceration was induced by injecting 30% acetic acid into the stomach of the animals on day zero. From day one onwards to day 10 the animals were treated twice daily with the protective compound (100 mg/kg; per os). On day 11 the extent of gastric damage was determined.

[15] = oral; British Pat. No. 1,251,976, Example 10; cited from earlier work
[16] = mice; Shibata 1981, p. 65; cited from earlier work

CC1(C)CC[C@]2(C(=O)O)CC[C@]3(C)C(=CC[C@@H]4[C@@]5(C)CC[C@H](O)C(C)(C)[C@@H]5CC[C@]43C)[C@@H]2C1 [Sodium oleanolate]
Percentage inhibition of Aspirin induced gastric damage ([1]; 30 mg/kg): 1% | Percentage inhibition of Aspirin induced gastric damage ([1]; 100 mg/kg): 30% | Percentage inhibition of Aspirin induced gastric damage ([1]; 300 mg/kg): 47%

CC(=O)Oc1ccccc1C(=O)O [Aspirin]
LD50 ([2]; combined): 1800 mg/kg | LD50 ([2]; females): 2100 mg/kg | LD50 (mice [3]): 1110 mg/kg | % inhibition of swelling ([4]; aspirin 25 mg/kg oral (combination: plus oleanolic acid 25 mg/kg), 1.5 hrs): 12% | % inhibition of swelling ([4]; aspirin 25 mg/kg oral (combination: plus oleanolic acid 25 mg/kg), 3 hrs): 17% | % inhibition of swelling ([4]; aspirin 25 mg/kg oral (combination: plus oleanolic acid 25 mg/kg), 4.5 hrs): 11% | % inhibition of swelling ([4]; aspirin 25 mg/kg oral (combination: plus oleanolic acid 25 mg/kg), 6 hrs): 18% | % inhibition of swelling ([4]; aspirin 50 mg/kg oral (combination: plus oleanolic acid 50 mg/kg), 1.5 hrs): 18% | % inhibition of swelling ([4]; aspirin 50 mg/kg oral (combination: plus oleanolic acid 50 mg/kg), 3 hrs): 32% | % inhibition of swelling ([4]; aspirin 50 mg/kg oral (combination: plus oleanolic acid 50 mg/kg), 4.5 hrs): 17% | % inhibition of swelling ([4]; aspirin 50 mg/kg oral (combination: plus oleanolic acid 50 mg/kg), 6 hrs): 16% | % inhibition of swelling ([4]; aspirin 100 mg/kg oral (combination: plus oleanolic acid 100 mg/kg), 1.5 hrs): 30% | % inhibition of swelling ([4]; aspirin 100 mg/kg oral (combination: plus oleanolic acid 100 mg/kg), 3 hrs): 42% | % inhibition of swelling ([4]; aspirin 100 mg/kg oral (combination: plus oleanolic acid 100 mg/kg), 4.5 hrs): 32% | % inhibition of swelling ([4]; aspirin 100 mg/kg oral (combination: plus oleanolic acid 100 mg/kg), 6 hrs): 23% | % inhibition of swelling ([4]; aspirin 200 mg/kg oral (combination: plus oleanolic acid 200 mg/kg), 1.5 hrs): 45% | % inhibition of swelling ([4]; aspirin 200 mg/kg oral (combination: plus oleanolic acid 200 mg/kg), 3 hrs): 52% | % inhibition of swelling ([4]; aspirin 200 mg/kg oral (combination: plus oleanolic acid 200 mg/kg), 4.5 hrs): 34% | % inhibition of swelling ([4]; aspirin 200 mg/kg oral (combination: plus oleanolic acid 200 mg/kg), 6 hrs): 30% | ED50 ([5]; po): 22.3 mg/kg | effect on occurrence of pulmonary thrombo-embolism [6]: inhibits the occurrence | ED50 ([6]; read-out: ED50 (antithrombotic effect)): 41 mg/kg

CN/C(=N/CCSCc1nc[nH]c1C)NC#N [Cimetidine, reference compound]
inhibition of gastric damage (HCl - Gastrin ulcer) [7]: 41%

CC1(C)CC[C@]2(C(=O)O)CC[C@]3(C)C(=CC[C@@H]4[C@@]5(C)CC[C@H](O)C(C)(C)[C@@H]5CC[C@]43C)[C@@H]2C1 [Oleanolic acid, oleanolic acid]
% Inhibition of spasms ([8]; 10 mg/kg oral): 8.6% | Average No. of spasms (25 mins) ([8]; 10 mg/kg oral): 40.0 | % Inhibition of spasms ([8]; 31.6 mg/kg oral): 49.4% | Average No. of spasms (25 mins) ([8]; 31.6 mg/kg oral): 22.12 | % Inhibition of spasms ([8]; 100 mg/kg oral): 65.7% | Average No. of spasms (25 mins) ([8]; 100 mg/kg oral): 15.10 | inhibition of the mean total ulceration score [9]: 83.5% | Percentage inhibition of Aspirin induced gastric damage ([1]; 30 mg/kg): 28% | Percentage inhibition of Aspirin induced gastric damage ([1]; 100 mg/kg): 49% | Percentage inhibition of Aspirin induced gastric damage ([1]; 300 mg/kg): 69% | Percentage inhibition of Indomethacin induced gastric damage ([10]; 10 mg/kg): 61% | Percentage inhibition of Indomethacin induced gastric damage ([10]; 30 mg/kg): 66% | Percentage inhibition of Indomethacin induced gastric damage ([10]; 100 mg/kg): 80% | Percentage inhibition of Indomethacin induced gastric damage ([10]; 300 mg/kg): 86% | doses that did not cause any deaths (mice [11]): up to 4000 mg/kg | inhibition of reserpine induced gastric damage [12]: 25% | inhibition of gastric damage (HCl - Gastrin ulcer) [7]: about 49% | reduction of gastric damage (thermal ulceration) [13]: 59% | reduction of gastric damage (acetic acid ulceration) [14]: 73% | ED50 ([5]; rats, oral, acetic acid spasms): 55.8 mg/kg | effect on occurrence of pulmonary thrombo-embolism [6]: no effect | reduction in ulceration (glucose induced) [15]: 8% | inhibiting activity against stress-induced ulceration [16]: non-significant, if any, inhibiting activity

CC1(C)[C@@H](O)CC[C@]2(C)[C@H]3CC=C4[C@@H]5C[C@@](C)(CO)CC[C@]5(C)CC[C@@]4(C)[C@]3(C)CC[C@@H]12 [olean-12-en-3β, 30-diol, reference compound]
inhibiting activity against stress-induced ulceration [16]: promising inhibiting activity

CC1(C)[C@@H](OC(=O)CCC(=O)O)CC[C@]2(C)[C@H]3C(=O)C=C4[C@@H]5C[C@@](C)(C(=O)O)CC[C@]5(C)CC[C@@]4(C)[C@]3(C)CC[C@@H]12 [Carbenoxolone sodium, disodium salt of the hemisuccinate of glycyrrhetinic acid, reference compound]
reduction of gastric damage (acetic acid ulceration) [14]: 42%
